Laboratory results reported in US9238003B2, “Extended or continuous wear silicone hydrogel contact lenses for the extended release of comfort molecules” (AUBURN UNIVERSITY, priority 2005, dated 2016).

How the values were obtained:
Assay type in all cases: physicochemical
[1] = Dynamic HPMC release studies, perfect sink (Sotax dissolution apparatus, DI water); conditions: soaked LFB lenses
Method: Dynamic HPMC Release Studies. Dynamic release studies were conducted to measure how long each therapeutic contact lens would release HPMC in-vitro. The studies were conducted with the perfect sink model in order to sustain the greatest driving force, using a Sotax Dissolution Apparatus (Horsham, Pa.), in which loaded lenses were placed in 250 mL of DI water (pH 6.4). Separate experiments were conducted to confirm the perfect sink volume.
In the Sotax apparatus, the release media was stirred at a constant rate of 30 rpm by paddles and kept at a constant temperature of 34° C. The average weight of the lenses out of the mold was 35 mg±6 mg. HPMC concentration in the release medium was determined via HPLC (Shimadzu, Japan) equipped with a refractive index detector. The mobile phase was deionized water, and a flow rate of 1 mL/min was maintained by the HPLC. A standard curve of refractive index and known HPLC concentration was established. Percent mass release curves were plotted for each lens.

[2] = Loading of HPMC into LFB lenses by soaking in aqueous HPMC solution
From the text: The first step of this work was to assess the feasibility of loading HPMC directly into a lens. […] The mass uptake of various HPMC solutions is presented in Table 2 (showing mass loading of various HPMC concentrations and molecular weights).

[3] = Pre-polymer loading of HPMC into LFB lens formulation
Method: Synthesis of LFB Lenses and Synthesis of Imprinted LFB Lenses. Lenses were produced by mixing individual monomers of the LFB formulation. The monomers were kept refrigerated at 4° C. A typical formulation consisted of 1300 mg of Betacon macromer, 1300 mg of TRIS, and 1300 mg of DMA (referred to as the base formulation). The base formulation was equal parts of these monomers and used to calculate ratios of other components. Equal weights of EGDMA and PEG200DMA were added to a desired concentration anywhere between 0 and 10 wt % of the base formulation Imprinting monomers were then added between 0 and 10 wt % of the base formulation. Darocur 1173 was added to the solution to a concentration of 1% of the base formulation. The samples were thoroughly mixed by sonication for 30 minutes and then the comfort agent was added to the desired concentration. The formulations were exposed to high shear mixing for up to 1 minute and sonicated for at least 15 minutes to remove any dissolved air or air bubbles. After the comfort agent was added, the sample was sonicated and mixed until evenly dispersed.
A fixed volume was pipetted into polypropylene (PP) lens molds provided by CIBA Vision, Inc. The mass of formulation pipetted varied between 100 to 200 mg depending on the concentration of comfort agent. […]

[4] = Dynamic release of HA from hydrogel lenses in lacrimal solution (ELISA); conditions: largest HA, 1 million daltons; 6.5 mg HA per g PM
Method: Dynamic Release Studies. Dynamic release studies were conducted to measure how long a therapeutic contact lens would release drug in vitro under conditions similar to the eye surface. The studies are also able to reveal the order of the release.
The protocol for a kinetic release study begins with the synthesis of hydrogel as described previously. As each study was conducted in triplicate, three lenses were made of every HA-prepolymer formulation. A lacrimal solution isotonic with human tears (6.78 g/L NaCl, 2.18 g/L NaHCO3, 1.38 g/L Kcl, 0.084 g/L CaCl2 2H2O, pH 8) was pipetted into 50 mL centrifugation tubes, 20 mL per tube. Each lens was placed in a tube and incubated at 35EC on an orbital shaker. After measured time intervals, the lenses were extracted and deposited into fresh lacrimal solution. The lacrimal solution with HA released in it was stored at 4° C. until essayed. After data had been collected for 3-5 days, an ELISA assay for HA was used to determine the concentration in each release sample. If necessary, the samples were diluted to bring into the assay detection range.
Cumulative release curves were plotted for each lens formulation, and the data was used to calculate the rate of diffusion of HA from the hydrogel. The transport of the drug from the lens placed in a fluid environment was mathematically modeled. […]

[5] = Heat stability of HA solutions; conditions: heated 60 minutes
Method: The effect of heat conditions on HA solution was also assessed. In 2 mL microcentrifuge vials, 1 mL samples of HA solutions of 500 ng/mL and 10 μg/mL were heated to 105° C. and 121EC respectively. The 500 ng/mL samples were heated for 0 minutes, 5 minutes, 30 minutes and 60 minutes while the 10 μg/mL samples were heated for 15 minutes, 30 minutes, 45 minutes and 60 minutes. The sample vials were quenched in a room temperature water bath and assayed with an ELISA assay kit for HA.

| Substance | Release Time After 7 Day Soak [1] | release time from soaked lenses [1] | Mass Loaded from Drug Solutions ([2]; 1 Day Soak, 0.1%) [μg/lens] | Mass Loaded from Drug Solutions ([2]; 1 Day Soak, 1%) [μg/lens] | Mass Loaded from Drug Solutions ([2]; 1 Day Soak, 10%) [μg/lens] | Mass Loaded from Drug Solutions ([2]; 2 Day Soak, 0.1%) [μg/lens] | Mass Loaded from Drug Solutions ([2]; 2 Day Soak, 1%) [μg/lens] | Mass Loaded from Drug Solutions ([2]; 2 Day Soak, 10%) [μg/lens] | Mass Loaded from Drug Solutions ([2]; 7 Day Soak, 0.1%) [μg/lens] | Mass Loaded from Drug Solutions ([2]; 7 Day Soak, 1%) [μg/lens] | Mass Loaded from Drug Solutions ([2]; 7 Day Soak, 10%) [μg/lens] | loading after soaking in a solution for a week ([2]; any solution concentration) [μg/lens] | loading of HPMC limited by thickness ([3]; 100 μm swollen lens thickness) | maximum mass of HPMC loaded (pre-polymer loaded) ([3]; 350 μm thick lens) | time HA was diffusing out of the lens [4] | change in signal strength (heat degradation of large HA) ([5]; 500 ng/mL solution) [%] | change in concentration (heat degradation of large HA) ([5]; 10 μg/mL solution) [%] |
| --- | --- | --- | --- | --- | --- | --- | --- | --- | --- | --- | --- | --- | --- | --- | --- | --- | --- |
| hydroxypropyl methylcellulose [HPMC 10 KDa] | 30 min | less than 30 minutes | 0.32 | 4.1 | 5.4 | 0.21 | 3.2 | 6.9 | 1.2 | 5.7 | 2.9 |  |  |  |  |  |  |
| hydroxypropyl methylcellulose [HPMC 120 KDa] | None |  | 0.001 | 0.003 | 0.004 | 0.08 | 0.04 | 0.01 | 0.006 | 0.2 | 0.1 | ≤ 0.2 | ~1,000 μg/lens | ~8,000 μg/lens |  |  |  |
| hydroxypropyl methylcellulose [HPMC 90 KDa] | None |  | 0.09 | 0.07 | 0.4 | 0.09 | 0.65 | 0 | 0.01 | 0.48 | 0 |  |  |  |  |  |  |
| Hyaluronic Acid [HA] |  |  |  |  |  |  |  |  |  |  |  |  |  |  | up to 3 days | 50 | 30 |
